Experimental data as given in the supplement of paper PMC11208160.

Test: recombinant barcode read abundance after kanamycin selection (control-corrected) (log10(CPM+1)); higher = more efficient recombination; sequences stand for … in AGTGCAGAGAAAATCGGCCAGTTTTCTCTGCCTGCAGTCCGCATGCCGT…AGATTTATGCAGCGGACTGCCTTTCTCCCAAAGTGATAAACCGGACAGTATCATGGACCGGTTTTCCCGGTAATCCGTATTTGCAAGGTTGGTTTCACT; site = the 11-nt target
Summary of the method: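 Duplicate cultures were plated either on chloramphenicol/ampicillin LB agar, serving as control, or on chloramphenicol/ampicillin/kanamycin with 0.1 mM IPTG. These came from a pooled E. coli library co-electroporated with a donor plasmid, each member pairing a target with an IS621 bridge RNA target-binding loop. Recombination efficiency equals averaged, control-corrected counts per million of recombinant-junction barcodes. It is listed as log10(CPM+1).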
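Further: IS621 recombinase and bridge RNA in Escherichia coli cells.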

Sequence	recombinant barcode read abundance (log10)
GAGCCACCTTGGGTTCTAACCTGTTGCCT (site AAGCCACCTAG)	0.868
GAGCCACCTTGGGTTCTAACCTGTTGCCT (site CAGCCACCTAG)	0.236
GAGCCACCTTGGGTTCTAACCTGTTGCCT (site GAGCCACCTAG)	1.48
GAGCCACCTTGGGTTCTAACCTGTTGCCT (site TAGCCACCTAG)	0.911
GAGCCGGCTTGGGTTCTAACCTGTTGCTT (site GAGACGGCTAA)	0.0584
GAGCCGGCTTGGGTTCTAACCTGTTGCTT (site GAGCCGGCTAA)	1.32
GAGCCGGCTTGGGTTCTAACCTGTTGCTT (site GAGGCGGCTAA)	0.3
GAGCCGGCTTGGGTTCTAACCTGTTGCTT (site GAGTCGGCTAA)	0.337
GAGCGAGCTTGGGTTCTAACCTGTTGCGG (site GAGCGAGCTCA)	0.0195
GAGCGAGCTTGGGTTCTAACCTGTTGCGG (site GAGCGAGCTCC)	1.13
GAGCGAGCTTGGGTTCTAACCTGTTGCGG (site GAGCGAGCTCG)	0.196
GAGCGAGCTTGGGTTCTAACCTGTTGCGG (site GAGCGAGCTCT)	1.07
GAGCGAGCTTGGGTTCTAACCTGTTGCTG (site GAGCGAGCTCA)	1.5
GAGCGAGCTTGGGTTCTAACCTGTTGCTG (site GAGCGAGCTCC)	0.41
GAGCGAGCTTGGGTTCTAACCTGTTGCTG (site GAGCGAGCTCG)	0.529
GAGCGAGCTTGGGTTCTAACCTGTTGCTG (site GAGCGAGCTCT)	1.25
GAGCGCTCTTGGGTTCTAACCTGTTGCAG (site GAGCGCTCTCT)	1.42
GAGCGCTCTTGGGTTCTAACCTGTTGCAG (site GAGTGCTCTCT)	0.0694
GAGCGTCCTTGGGTTCTAACCTGTTGCAG (site GAGCGTCCTCT)	1.26
GAGCGTCCTTGGGTTCTAACCTGTTGCAG (site GAGTTTCCTCT)	0.0296
GAGCGTCCTTGGGTTCTAACCTGTTGCCG (site CAGTGTCCTCG)	0.0924
GAGCGTCCTTGGGTTCTAACCTGTTGCCG (site GAGCGTCCTCG)	0.739

Sequence	recombinant barcode read abundance (log10)
GAGCGTTCTTGGGTTCTAACCTGTTGCCT (site GAGCGCTCTCG)	0.199
GAGCGTTCTTGGGTTCTAACCTGTTGCCT (site GAGCGTTCTAG)	1.47
GAGCTACCTTGGGTTCTAACCTGTTGCCC (site GAGCTACCTAG)	1.48
GAGCTACCTTGGGTTCTAACCTGTTGCCC (site GAGCTACCTCG)	0.199
GAGCTACCTTGGGTTCTAACCTGTTGCCC (site GAGCTACCTGG)	1.72
GAGCTACCTTGGGTTCTAACCTGTTGCCC (site GAGCTACCTTG)	0.85
GAGCTAGCTTGGGTTCTAACCTGTTGCGT (site GAGCTAGCTAC)	2.41
GAGCTAGCTTGGGTTCTAACCTGTTGCGT (site GAGCTAGCTGC)	0.155
GAGGACTCTTGGGTTCTAACCTGTTGCCG (site GAGGACTCTAG)	2.41
GAGGACTCTTGGGTTCTAACCTGTTGCCG (site GAGGACTCTCG)	2.32
GAGGACTCTTGGGTTCTAACCTGTTGCCG (site GAGGACTCTGG)	0.458
GAGGACTCTTGGGTTCTAACCTGTTGCCG (site GAGGACTCTTG)	0.476
GAGGCTACTTGGGTTCTAACCTGTTGCAT (site ACAAGGGCTCA)	0.0274
GAGGCTACTTGGGTTCTAACCTGTTGCAT (site GAGGCTACTAT)	1.26
GAGGCTCCTTGGGTTCTAACCTGTTGCCC (site GAGGCTCCTAG)	0.372
GAGGCTCCTTGGGTTCTAACCTGTTGCCC (site GAGGCTCCTCG)	0.174
GAGGCTCCTTGGGTTCTAACCTGTTGCCC (site GAGGCTCCTGG)	1.26
GAGGCTCCTTGGGTTCTAACCTGTTGCCC (site GAGGCTCCTTG)	0.104
GAGGGCACTTGGGTTCTAACCTGTTGCCA (site GAGAGCACTTG)	0.074
GAGGGCACTTGGGTTCTAACCTGTTGCCA (site GAGGGCACTTG)	0.917
GAGGGCCCTTGGGTTCTAACCTGTTGCTG (site GAGGGCCCTCA)	2.8
GAGGGCCCTTGGGTTCTAACCTGTTGCTG (site GAGGGCCCTCC)	0.808

Sequence	recombinant barcode read abundance (log10)
GAGGGCCCTTGGGTTCTAACCTGTTGCTG (site GAGGGCCCTCG)	2.03
GAGGGCCCTTGGGTTCTAACCTGTTGCTG (site GAGGGCCCTCT)	1.56
GAGGGCTCTTGGGTTCTAACCTGTTGCGG (site AGTTCACCTTA)	0.0921
GAGGGCTCTTGGGTTCTAACCTGTTGCGG (site GAGGGCTCTCC)	2.73
GAGGGGTCTTGGGTTCTAACCTGTTGCAC (site CAGGCGTCTGT)	0.122
GAGGGGTCTTGGGTTCTAACCTGTTGCAC (site GAGGGGTCTGT)	2.81
GAGGGTCCTTGGGTTCTAACCTGTTGCAT (site GAGGGTCCTAA)	0.573
GAGGGTCCTTGGGTTCTAACCTGTTGCAT (site GAGGGTCCTAC)	0.542
GAGGGTCCTTGGGTTCTAACCTGTTGCAT (site GAGGGTCCTAG)	1.65
GAGGGTCCTTGGGTTCTAACCTGTTGCAT (site GAGGGTCCTAT)	2.74
GAGGTAACTTGGGTTCTAACCTGTTGCAC (site GAGGTAACTGT)	1.66
GAGGTAACTTGGGTTCTAACCTGTTGCAC (site TGTACGCCTAG)	0.0446
GAGGTAACTTGGGTTCTAACCTGTTGCCT (site GAAGTAACTAG)	0.0669
GAGGTAACTTGGGTTCTAACCTGTTGCCT (site GACGTAACTAG)	1.23
GAGGTAACTTGGGTTCTAACCTGTTGCCT (site GAGGTAACTAG)	0.0487
GAGGTAACTTGGGTTCTAACCTGTTGCCT (site GATGTAACTAG)	0.822
GAGTACTCTTGGGTTCTAACCTGTTGCTA (site GAGTACTCTTA)	1.8
GAGTACTCTTGGGTTCTAACCTGTTGCTA (site GAGTCTTCTTA)	0.00735
GAGTAGTCTTGGGTTCTAACCTGTTGCTT (site GAGTAGACTAA)	0.941
GAGTAGTCTTGGGTTCTAACCTGTTGCTT (site GAGTAGTCTAA)	2.05
GAGTCGTCTTGGGTTCTAACCTGTTGCTT (site GAGCCATCTAA)	0.402
GAGTCGTCTTGGGTTCTAACCTGTTGCTT (site GAGTCGTCTAA)	1.45
